Assays:
[1] = target: T1, Human CARM1 (PRMT4) (Homo sapiens, UniProt Q86X55); test: CARM1 enzyme assay on peptide substrate (3H-SAM Flashplate); type: biochemical; details: CARM1 0.25 nM, 3H-SAM 30 nM, peptide 250 nM; read-out: Biochem IC50
T1 construct: Flag-CARM1-His was eluted with 200 ug/ml FLAG peptide in buffer A; made in house; host or cells: HEK 293F cells infected with recombinant baculovirus (pFastBacMam)
Text: S-adenosylmethionine (SAM), S-adenosylhomocysteine (SAH), bicine, Tween20, dimethylsulfoxide (DMSO), bovine skin gelatin (BSG), sodium butyrate and Tris(2-carboxyethyl)phosphine hydrochloride solution (TCEP) were purchased from Sigma-Aldrich at the highest level of purity possible. ^3H-SAM was purchase from American Radiolabeled Chemicals with a specific activity of 80 Ci/mmol. 384-well streptavidin Flashplates were purchased from PerkinElmer.
Peptide representative of human histone H3 residues 16-30 was synthesized with an N-terminal linker-affinity tag motif and a C-terminal amide cap by 21st Century Biochemicals. The peptide was purified by high-performance liquid chromatography (HPLC) to greater than 95% purity and confirmed by liquid chromatography mass spectrometry (LC-MS). The sequence was Biot-Ahx-[…]-amide and contained a monomethylated arginine at position 26 (SEQ ID NO.:1).
Human CARM1 (PRMT4) (NM_199141.1) transcript clone was amplified from an HEK 293 cDNA library, incorporating a flanking 5′ sequence encoding a FLAG tag ([…]) (SEQ ID NO.:2) fused directly to Ala 2 of CARM1 and 3′ sequence encoding a hexa His sequence ([…]) (SEQ ID NO.:3) fused directly to Ser 608. The gene sequence encoding isoform1 containing a deletion of amino acids 539-561 was amplified subsequently and subcloned into pFastBacMam (Viva Biotech).
Recombinant baculovirus were generated according to Bac-to-Bac kit instructions (Life Technologies). Protein over-expression was accomplished by infecting exponentially growing HEK 293F cell culture at 1.3×10^6 cell/ml with virus (MOI=10) in the presence of 8 mM sodium butyrate. Infections were carried out at 37° C. for 48 hours, harvested by centrifugation, and stored at −80° C. for purification.
Column was washed with 500 mM NaCl in buffer A and Flag-CARM1-His was eluted with 200 ug/ml FLAG peptide in buffer A. Pooled fractions were dialyzed in 20 mM Tris, 150 mM NaCl, 5% glycerol and 1 mM DTT, pH 7.8. The purity of recovered protein was 94.
The assays were all performed in a buffer consisting of 20 mM Bicine (pH=7.6), 1 mM TCEP, 0.005% BSG, and 0.002% Tween 20, prepared on the day of use. Compounds in 100% DMSO (1 ul) were spotted into a polypropylene 384-well V-bottom plates (Greiner) using a Platemate Plus outfitted with a 384-channel head (Thermo Scientific). DMSO (1 ul) was added to Columns 11, 12, 23, 24, rows A-H for the maximum signal control and 1 ul of SAH, a known product and inhibitor of CARM1, was added to columns 11, 12, 23, 24, rows I—P for the minimum signal control. A cocktail (40 ul) containing the CARM1 enzyme was added by Multidrop Combi (Thermo-Fisher). The compounds were allowed to incubate with CARM1 for 30 min at room temperature, then a cocktail (10 ul) containing ^3H-SAM and peptide was added to initiate the reaction (final volume=51 ul). The final concentrations of the components were as follows: CARM1 was 0.25 nM, ^3H-SAM was 30 nM, peptide was 250 nM, SAH in the minimum signal control wells was 1 mM, and the DMSO concentration was 2%. The assays were stopped by the addition of non-radiolabeled SAM (10 ul) to a final concentration of 300 uM, which dilutes the ^3H-SAM to a level where its incorporation into the peptide substrate is no longer detectable. 50 ul of the reaction in the 384-well polypropylene plate was then transferred to a 384-well Flashplate and the biotinylated peptides were allowed to bind to the streptavidin surface for at least 1 hour before being washed once with 0.1% Tween20 in a Biotek ELx405 plate washer. The plates were then read in a PerkinElmer TopCount plate reader to measure the quantity of ^3H-labeled peptide bound to the Flashplate surface, measured as disintegrations per minute (dpm) or alternatively, referred to as counts per minute (cpm).
where dpm=disintegrations per minute, cmpd=signal in assay well, and min and max are the respective minimum and maximum signal controls. […]

[2] = system: asymmetric di-methyl PABP1 in RKO cells; test: RKO methylation assay (In Cell Western for asymmetric di-methyl PABP1); type: cell-based; details: Homo sapiens, 48 hours incubation, read-out: Cellular IC50
In short: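 RKO cells treated 48 h at 37 °C, then fixed, methanol-permeabilized and probed for asymmetric di-methyl PABP1 (16 h, 4 °C) with DRAQ5 counterstain; 800/700 nm intensity ratio read.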

T1 sequence (Q86X55 other isoform, or with tags, fused parts or gaps): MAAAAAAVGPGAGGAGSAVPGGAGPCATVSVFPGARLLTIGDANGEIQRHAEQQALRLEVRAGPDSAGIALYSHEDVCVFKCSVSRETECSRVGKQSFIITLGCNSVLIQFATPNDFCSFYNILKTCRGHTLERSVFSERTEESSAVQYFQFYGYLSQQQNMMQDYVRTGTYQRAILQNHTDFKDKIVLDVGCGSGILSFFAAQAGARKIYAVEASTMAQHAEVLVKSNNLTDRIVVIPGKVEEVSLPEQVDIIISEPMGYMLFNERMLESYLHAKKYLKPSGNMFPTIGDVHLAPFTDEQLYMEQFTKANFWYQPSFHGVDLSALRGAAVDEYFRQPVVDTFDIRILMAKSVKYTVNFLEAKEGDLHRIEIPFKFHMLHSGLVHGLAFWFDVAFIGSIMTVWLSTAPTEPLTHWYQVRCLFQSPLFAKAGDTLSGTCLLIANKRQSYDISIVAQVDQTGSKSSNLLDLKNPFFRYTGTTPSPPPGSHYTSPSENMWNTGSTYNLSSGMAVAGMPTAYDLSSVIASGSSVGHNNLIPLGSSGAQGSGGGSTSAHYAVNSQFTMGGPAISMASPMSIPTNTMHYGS

`CNC[C@@H](O)COc1cccc(-c2cc(N3CCOCC3)n3ncc(C(C)C)c3n2)c1` [Example 8-6] was tested, and the IC50 [1] was less than 100 nM and the IC50 [2] was greater than 20000 nM.
`CNCC(O)COc1cccc(-c2nc(NCc3cnn(C)c3)c3cnn(C(C)(C)C)c3n2)c1` (stereo not shown) [Example 8-8] showed an IC50 [1] of less than 100 nM and an IC50 [2] greater than 20000 nM.
`CNCC(O)COc1cccc(-c2nc(NCc3nccs3)c3cnn(C4CC4)c3n2)c1` (stereo not shown) [Example 8-9] showed an IC50 [1] of 100 to 1000 nM and an IC50 [2] of 10000 to 20000 nM.
In the case of `CNCC(O)COc1cc(Cl)cc(-c2cc(NC3CCOC3)c3cnn(C(C)C)c3n2)c1` (stereo not shown) [Example 9-4], the IC50 [1] is reported as less than 100 nM and the IC50 [2] is reported as greater than 20000 nM.
`CC(C)(C)n1ncc2c(N3CCOCC3)nc(-c3cccc(OCC(O)CN)c3)nc21` (stereo not shown) [Example 9-5] showed an IC50 [1] of less than 100 nM and an IC50 [2] greater than 20000 nM.
For `CNC[C@H](O)COc1cccc(-c2cc(N3CCOCC3)n3ncc(C(C)C)c3n2)c1` [Example 9-6], the IC50 [1] was less than 100 nM and the IC50 [2] was greater than 20000 nM.
`CC(C)c1cnn2c(N3CCOCC3)cc(-c3cccc(OC[C@@H](O)CN)c3)nc12` [Example 9-8] showed an IC50 [1] of less than 100 nM and an IC50 [2] greater than 20000 nM.
`CNCC(O)COc1cc(Cl)cc(-c2cc(N(C)C3CCOCC3)n3ncc(C(C)(C)C)c3n2)c1` (stereo not shown) [Example 9-9] gave an IC50 [1] of 100 to 1000 nM and an IC50 [2] greater than 20000 nM.
`CNCC(O)COc1cc(OC)cc(-c2cc(Nc3cncnc3)c3cnn(C(C)C)c3n2)c1` (stereo not shown) [Example 10-4] was tested, and the IC50 [1] was less than 100 nM and the IC50 [2] was greater than 20000 nM.
`CNCC(O)COc1cccc(-c2nc(NC3CCOC3)c3cnn(C(C)C)c3n2)c1` (stereo not shown) [Example 10-5] gave an IC50 [1] of less than 100 nM and an IC50 [2] of 10000 to 20000 nM.
Work on `CNCC(O)COc1cccc(-c2cc(N[C@H]3CCOC3)n3ncc(C(C)C)c3n2)c1` (stereo partly shown) [Example 10-6] yielded an IC50 [1] of less than 100 nM and an IC50 [2] greater than 20000 nM.
`CC(C)c1cnn2c(N3CCOCC3)cc(-c3cccc(OC[C@H](O)CN)c3)nc12` [Example 10-8] gave an IC50 [1] of less than 100 nM and an IC50 [2] greater than 20000 nM.
`CN(c1cc(-c2cccc(OCC(O)CN)c2)nc2c(C(C)(C)C)cnn12)C1CCOCC1` (stereo not shown) [Example 10-9] gave an IC50 [1] of 100 to 1000 nM and an IC50 [2] greater than 20000 nM.
`CNCC(O)COc1cc(C#N)cc(-c2cc(NC3CCOCC3)c3cnn(C(C)C)c3n2)c1` (stereo not shown) [Example 11-4] gave an IC50 [1] of 100 to 1000 nM and an IC50 [2] greater than 20000 nM.
`NCC(O)COc1cccc(-c2nc(NCc3cccnc3)c3cnn(C4CC4)c3n2)c1` (stereo not shown) [Example 11-5] was tested, and the IC50 [1] was 100 to 1000 nM and the IC50 [2] was greater than 20000 nM.
`CNCC(O)COc1cccc(-c2cc(N[C@@H]3CCOC3)n3ncc(C(C)C)c3n2)c1` (stereo partly shown) [Example 11-6] was tested, and the IC50 [1] was less than 100 nM and the IC50 [2] was greater than 20000 nM.
Work on `CC(C)c1cnn2c(N(C)C3CCOCC3)cc(-c3cccc(OCC(O)CN)c3)nc12` (stereo not shown) [Example 11-8] yielded an IC50 [1] of 100 to 1000 nM and an IC50 [2] greater than 20000 nM.
Compound `CNCC(O)COc1cccc(-c2cc(NC(=O)NC)c3cnn(C(C)C)c3n2)c1` (stereo not shown) [Example 11-9] has an IC50 [1] of 100 to 1000 nM and an IC50 [2] greater than 20000 nM.
In the case of `CNCC(O)COc1cc(-c2cc(N3CCOCC3)c3cnn(C(C)C)c3n2)cc(C2CC2)c1` (stereo not shown) [Example 12-4], the IC50 [1] is reported as 100 to 1000 nM and the IC50 [2] is reported as greater than 20000 nM.
With `NCC(O)COc1cccc(-c2nc(NCc3ccncc3)c3cnn(C4CC4)c3n2)c1` (stereo not shown) [Example 12-5] the IC50 [1] was 100 to 1000 nM and the IC50 [2] was greater than 20000 nM.
Work on `CNCC(O)COc1cccc(-c2cc(N(C)CCOC)n3ncc(C(C)C)c3n2)c1` (stereo not shown) [Example 12-6] yielded an IC50 [1] of less than 100 nM and an IC50 [2] greater than 20000 nM.
Work on `CC(C)(C)c1cnn2c(NC3CCOCC3)cc(-c3cccc(OCC(O)CN)c3)nc12` (stereo not shown) [Example 12-8] yielded an IC50 [1] of less than 100 nM and an IC50 [2] greater than 20000 nM.
`CNCC(O)COc1cc(Cl)cc(-c2cc(N3C[C@H]4CC[C@@H](C3)O4)n3ncc(C(C)C)c3n2)c1` (stereo partly shown) [Example 12-9] showed an IC50 [1] of 100 to 1000 nM and an IC50 [2] greater than 20000 nM.

From patent publication US20170283440A1, “CARM1 INHIBITORS AND USES THEREOF” (Epizyme, Inc., priority 2014, published 2017)
